Earlier results, collected in patent publication US20250295727A1, “STABLE, READY-TO-ADMINISTER AQUEOUS FORMULATIONS OF DALBAVANCIN” (HIKMA PHARMACEUTICALS USA INC., priority 2022, published 2025).

Settings: lyophilized
[1] = storage at 25° C. for 12 months

Substance: dalbavancin [unformulated lyophilized dalbavancin]
- decrease of B0 [1]: 8.5%
- increase of MAG [1]: 10.2%
- decrease in dalbavancin's primary factor B0 (storage for 36 months at 5° C.): 3.6%
- increase in MAG (storage for 36 months at 5° C.): 2.9%
